From patent US9682148B2, “Solid oral dosage form of testosterone derivative” (Solural Pharma APS, priority 2012, dated 2017)

Assays:
[1] = cited from earlier work
[2] = Estimate of maximal amount of lymphatic absorbed TU; conditions: estimated: 25% of solubility x 120 mg/g x 3.5 g triglyceride/10 h, formulation of 600 mg fat
Source text: The maximal amount of lymphatic absorbed TU can be estimated from the solubility of Testosterone Undecanoate in triglyceride and the transported triglyceride (Int. J. Pharm., vol. 34, 175-178, 1986).

## CCCCCCCCCCC(=O)O[C@H]1CC[C@H]2[C@@H]3CCC4=CC(=O)CC[C@]4(C)[C@H]3CC[C@]12C [Testosterone Undecanoate]
[1]
  solubility in triglyceride: 120 mg/g
[2]
  maximal amount of lymphatic absorbed TU: ~100 mg
